ChEMBL document CHEMBL3994586, “Treatment of estrogen-dependent diseases: Design, synthesis and profiling of a selective 17β-HSD1 inhibitor with sub-nanomolar IC50 for a proof-of-principle study” (Eur J Med Chem, 2017)

Key:
[1] = biological target: T1, Estrogen receptor alpha (ERalpha) (Homo sapiens, UniProt P03372); test: Displacement of [3H]E2 from human recombinant ERalpha assessed as receptor binding at 3 uM after 16 to 20 hrs by liquid scintillation counting method relative to control; settings: probe [3H]E2, read-out: Activity
T1 sequence (P03372 whole entry): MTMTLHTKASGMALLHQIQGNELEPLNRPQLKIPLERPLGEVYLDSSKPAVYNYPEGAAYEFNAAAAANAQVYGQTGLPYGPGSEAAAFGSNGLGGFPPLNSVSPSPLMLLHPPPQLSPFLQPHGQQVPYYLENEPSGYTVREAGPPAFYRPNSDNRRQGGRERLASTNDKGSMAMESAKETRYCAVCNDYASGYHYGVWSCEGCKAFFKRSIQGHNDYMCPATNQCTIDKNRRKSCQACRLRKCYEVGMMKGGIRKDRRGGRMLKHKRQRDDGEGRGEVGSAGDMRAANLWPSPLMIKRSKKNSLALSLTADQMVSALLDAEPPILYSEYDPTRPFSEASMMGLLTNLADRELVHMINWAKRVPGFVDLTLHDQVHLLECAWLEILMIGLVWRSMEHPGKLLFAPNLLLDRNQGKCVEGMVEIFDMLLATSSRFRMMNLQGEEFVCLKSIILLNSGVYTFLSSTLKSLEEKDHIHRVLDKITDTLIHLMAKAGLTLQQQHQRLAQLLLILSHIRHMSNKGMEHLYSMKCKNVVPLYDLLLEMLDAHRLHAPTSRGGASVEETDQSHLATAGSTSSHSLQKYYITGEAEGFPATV

[2] = biological target: Estrogen receptor beta (ERbeta) (Homo sapiens, UniProt Q92731); test: Displacement of [3H]E2 from human recombinant ERbeta assessed as receptor binding at 10 uM after 16 to 20 hrs by liquid scintillation counting method relative to control; settings: probe [3H]E2, read-out: Activity
Sequence of Estrogen receptor beta (ERbeta) (Q92731 whole entry): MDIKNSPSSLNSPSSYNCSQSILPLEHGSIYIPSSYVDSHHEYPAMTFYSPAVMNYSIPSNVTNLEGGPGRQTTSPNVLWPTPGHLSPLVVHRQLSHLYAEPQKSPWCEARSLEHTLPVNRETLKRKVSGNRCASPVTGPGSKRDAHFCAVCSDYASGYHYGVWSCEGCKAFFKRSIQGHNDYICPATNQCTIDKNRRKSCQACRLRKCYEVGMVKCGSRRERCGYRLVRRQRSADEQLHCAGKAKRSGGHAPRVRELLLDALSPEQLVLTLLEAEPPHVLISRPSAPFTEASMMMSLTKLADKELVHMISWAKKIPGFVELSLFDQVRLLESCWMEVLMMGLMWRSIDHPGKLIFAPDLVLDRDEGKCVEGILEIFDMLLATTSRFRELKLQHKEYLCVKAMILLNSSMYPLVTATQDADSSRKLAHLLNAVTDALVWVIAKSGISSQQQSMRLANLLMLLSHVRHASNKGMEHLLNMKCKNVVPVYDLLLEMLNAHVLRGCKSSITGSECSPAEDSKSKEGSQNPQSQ

[3] = biological target: T2, 17-beta-hydroxysteroid dehydrogenase type 2 (Homo sapiens, UniProt P37059); test: Inhibition of human placental microsomal 17beta-HSD2 using [2,4,6,7-3H]-E2 as substrate after 20 mins in presence of NAD+ by RP-HPLC method
T2 sequence (P37059 whole entry): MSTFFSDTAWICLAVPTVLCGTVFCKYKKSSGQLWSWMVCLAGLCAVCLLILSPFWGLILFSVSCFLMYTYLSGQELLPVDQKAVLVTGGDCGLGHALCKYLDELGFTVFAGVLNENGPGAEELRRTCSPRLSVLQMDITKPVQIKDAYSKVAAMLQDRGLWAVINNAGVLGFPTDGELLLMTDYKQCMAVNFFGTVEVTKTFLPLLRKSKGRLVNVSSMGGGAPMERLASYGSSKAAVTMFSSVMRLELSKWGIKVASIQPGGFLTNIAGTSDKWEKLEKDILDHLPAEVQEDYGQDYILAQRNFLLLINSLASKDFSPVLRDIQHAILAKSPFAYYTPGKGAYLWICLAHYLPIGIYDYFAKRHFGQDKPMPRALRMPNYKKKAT

[4] = biological target: T3, 17-beta-hydroxysteroid dehydrogenase type 1 (Homo sapiens, UniProt P14061); test: Inhibition of human placental cytosolic 17beta-HSD1 assessed as reduction in activation of [2,4,6,7-3H]-E1 substrate to E2 after 10 mins in presence of NADH by RP-HPLC method
T3 sequence (P14061 whole entry): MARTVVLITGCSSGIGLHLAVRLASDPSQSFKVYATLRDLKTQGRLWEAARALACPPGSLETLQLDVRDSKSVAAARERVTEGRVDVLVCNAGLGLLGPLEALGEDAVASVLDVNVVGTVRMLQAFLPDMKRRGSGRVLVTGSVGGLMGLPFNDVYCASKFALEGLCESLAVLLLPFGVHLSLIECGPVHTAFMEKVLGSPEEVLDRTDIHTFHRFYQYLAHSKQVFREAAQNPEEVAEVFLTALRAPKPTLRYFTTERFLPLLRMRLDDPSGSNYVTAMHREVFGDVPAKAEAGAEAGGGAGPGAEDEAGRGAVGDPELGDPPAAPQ

Salmonella typhimurium [5] = test: Mutagenicity in Salmonella typhimurium TA7001/7002/7003/7004/7005/7006 up to 100 uM by Ames 2 assay; assay type: toxicity; settings: salmonella enterica subsp. enterica serovar typhimurium
CYP2D6 = CYP2D6 (Homo sapiens, UniProt P10635); test: Inhibition of recombinant human CYP2D6 expressed in baculovirus infected insect cell microsomes at 1 uM relative to control; assay type: ADME
Sequence of CYP2D6 (P10635 whole entry): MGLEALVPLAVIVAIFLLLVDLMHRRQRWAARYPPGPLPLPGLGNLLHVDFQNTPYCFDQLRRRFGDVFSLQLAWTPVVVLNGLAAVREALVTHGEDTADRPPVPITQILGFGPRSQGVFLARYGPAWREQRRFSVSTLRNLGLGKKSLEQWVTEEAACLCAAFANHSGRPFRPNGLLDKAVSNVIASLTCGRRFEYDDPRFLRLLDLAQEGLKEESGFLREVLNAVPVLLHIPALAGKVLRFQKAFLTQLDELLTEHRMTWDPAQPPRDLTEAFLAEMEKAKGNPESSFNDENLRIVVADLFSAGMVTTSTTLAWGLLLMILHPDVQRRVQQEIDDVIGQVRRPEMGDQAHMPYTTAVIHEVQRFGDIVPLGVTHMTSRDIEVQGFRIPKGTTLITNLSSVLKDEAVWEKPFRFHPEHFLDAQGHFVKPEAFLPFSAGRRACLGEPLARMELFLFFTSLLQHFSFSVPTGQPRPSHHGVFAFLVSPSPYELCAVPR

Plasma [6] = test: Plasma concentration in Sprague-Dawley rat at 150 umol/kg, sc qd for 4 consecutive days measured on day 2 post dose by HPLC-MS analysis; assay type: ADME, organism-based; settings: in vivo
Salmonella typhimurium [7] = test: Mutagenicity in Salmonella typhimurium TA7001/7002/7003/7004/7005/7006 up to 100 uM in presence of rat liver S9 fraction by Ames 2 assay; assay type: toxicity; settings: salmonella enterica subsp. enterica serovar typhimurium
Plasma [8] = test: Plasma concentration in Sprague-Dawley rat at 150 umol/kg, sc qd for 4 consecutive days measured on day 8 post dose by HPLC-MS analysis; assay type: ADME, organism-based; settings: in vivo
PXR (NR1I2) = biological target: T4, PXR (NR1I2) (Homo sapiens, UniProt O75469); test: Agonist activity at recombinant human PXR at 3.16 uM by co-factor recruitment assay relative to control; assay type: ADME; settings: read-out: Activity
T4 sequence (O75469 whole entry): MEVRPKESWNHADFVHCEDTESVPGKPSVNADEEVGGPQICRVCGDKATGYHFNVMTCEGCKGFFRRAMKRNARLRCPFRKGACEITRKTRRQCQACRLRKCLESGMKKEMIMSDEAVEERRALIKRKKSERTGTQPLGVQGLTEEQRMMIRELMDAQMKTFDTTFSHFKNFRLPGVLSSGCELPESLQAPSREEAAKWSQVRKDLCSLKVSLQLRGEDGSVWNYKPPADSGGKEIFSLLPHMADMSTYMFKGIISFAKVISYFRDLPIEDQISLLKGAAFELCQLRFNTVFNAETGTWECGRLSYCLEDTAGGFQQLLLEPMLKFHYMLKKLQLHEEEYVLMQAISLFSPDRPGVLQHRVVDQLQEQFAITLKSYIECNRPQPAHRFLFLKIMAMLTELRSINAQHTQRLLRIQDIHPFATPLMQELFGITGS

CYP2C9 = CYP2C9 (Homo sapiens, UniProt P11712); test: Inhibition of recombinant human CYP2C9 expressed in baculovirus infected insect cell microsomes at 1 uM relative to control; assay type: ADME
Sequence of CYP2C9 (P11712 whole entry): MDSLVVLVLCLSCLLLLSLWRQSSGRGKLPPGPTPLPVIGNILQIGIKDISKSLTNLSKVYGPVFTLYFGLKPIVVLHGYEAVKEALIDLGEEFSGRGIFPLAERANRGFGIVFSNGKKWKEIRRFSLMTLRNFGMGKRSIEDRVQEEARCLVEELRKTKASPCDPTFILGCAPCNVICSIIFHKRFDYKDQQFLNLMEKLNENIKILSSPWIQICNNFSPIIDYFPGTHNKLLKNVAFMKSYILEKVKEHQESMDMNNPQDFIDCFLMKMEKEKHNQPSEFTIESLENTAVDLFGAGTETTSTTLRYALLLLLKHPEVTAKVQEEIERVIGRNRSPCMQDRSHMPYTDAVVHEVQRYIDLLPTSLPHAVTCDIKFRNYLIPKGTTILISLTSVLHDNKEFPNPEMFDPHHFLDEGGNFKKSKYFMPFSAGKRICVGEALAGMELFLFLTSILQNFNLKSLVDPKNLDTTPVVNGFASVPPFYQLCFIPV

Plasma [9] = test: Plasma concentration in Sprague-Dawley rat at 150 umol/kg, sc qd for 4 consecutive days measured on day 4 post dose by HPLC-MS analysis; assay type: ADME, organism-based; settings: in vivo
HEK293 = test: Cytotoxicity against HEK293 cells assessed as reduction in cell viability up to 5.6 uM after 66 hrs by MTT assay; assay type: cell-based; settings: human, hek293, 66 h
Salmonella typhimurium [10] = test: Mutagenicity in Salmonella typhimurium TA98 up to 100 uM in presence of rat liver S9 fraction by Ames 2 assay; assay type: toxicity; settings: salmonella enterica subsp. enterica serovar typhimurium
CYP2B6 = biological target: T5, CYP2B6 (Homo sapiens, UniProt P20813); test: Inhibition of recombinant human CYP2B6 expressed in baculovirus infected insect cell microsomes at 1 uM relative to control; assay type: ADME
T5 sequence (P20813 whole entry): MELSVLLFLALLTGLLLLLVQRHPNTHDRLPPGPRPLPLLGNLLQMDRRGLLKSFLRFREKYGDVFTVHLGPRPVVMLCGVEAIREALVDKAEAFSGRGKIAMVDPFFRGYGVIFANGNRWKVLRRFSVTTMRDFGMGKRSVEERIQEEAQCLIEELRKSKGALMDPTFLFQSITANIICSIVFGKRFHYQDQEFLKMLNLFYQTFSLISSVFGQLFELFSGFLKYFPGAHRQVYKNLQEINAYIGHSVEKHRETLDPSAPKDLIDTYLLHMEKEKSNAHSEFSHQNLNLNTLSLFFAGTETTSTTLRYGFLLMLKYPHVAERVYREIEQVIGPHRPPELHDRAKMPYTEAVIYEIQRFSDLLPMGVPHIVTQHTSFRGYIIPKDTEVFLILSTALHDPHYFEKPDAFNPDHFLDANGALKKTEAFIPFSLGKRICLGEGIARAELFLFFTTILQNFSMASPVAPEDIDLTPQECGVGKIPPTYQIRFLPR

CYP1A2 = biological target: T6, CYP1A2 (Homo sapiens, UniProt P05177); test: Inhibition of recombinant human CYP1A2 expressed in baculovirus infected insect cell microsomes at 1 uM relative to control; assay type: ADME
T6 sequence (P05177 whole entry): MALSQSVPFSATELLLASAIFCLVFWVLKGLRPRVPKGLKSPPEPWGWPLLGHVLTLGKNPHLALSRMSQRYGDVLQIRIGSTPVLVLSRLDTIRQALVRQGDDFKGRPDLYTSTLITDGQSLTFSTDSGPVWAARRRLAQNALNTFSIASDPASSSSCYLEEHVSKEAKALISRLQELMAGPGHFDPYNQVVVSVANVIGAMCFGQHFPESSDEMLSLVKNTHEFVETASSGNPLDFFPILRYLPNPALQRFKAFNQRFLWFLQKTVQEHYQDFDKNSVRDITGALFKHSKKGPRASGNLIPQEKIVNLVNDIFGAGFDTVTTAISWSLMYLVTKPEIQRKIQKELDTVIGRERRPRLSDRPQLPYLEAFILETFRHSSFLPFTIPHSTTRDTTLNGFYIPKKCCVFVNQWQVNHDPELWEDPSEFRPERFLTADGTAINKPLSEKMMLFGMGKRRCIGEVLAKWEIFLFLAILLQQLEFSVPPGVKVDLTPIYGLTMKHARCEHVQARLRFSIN

Salmonella typhimurium [11] = test: Mutagenicity in Salmonella typhimurium TA98 up to 100 uM by Ames 2 assay; assay type: toxicity; settings: salmonella enterica subsp. enterica serovar typhimurium
[12] = Selectivity index, ratio of IC20 for HEK293 cells to IC50 for human placental cytosolic 17beta-HSD1
CYP3A4 = CYP3A4 (Homo sapiens, UniProt P08684); test: Inhibition of recombinant human CYP3A4 expressed in baculovirus infected insect cell microsomes at 1 uM relative to control; assay type: ADME
Sequence of CYP3A4 (P08684 whole entry): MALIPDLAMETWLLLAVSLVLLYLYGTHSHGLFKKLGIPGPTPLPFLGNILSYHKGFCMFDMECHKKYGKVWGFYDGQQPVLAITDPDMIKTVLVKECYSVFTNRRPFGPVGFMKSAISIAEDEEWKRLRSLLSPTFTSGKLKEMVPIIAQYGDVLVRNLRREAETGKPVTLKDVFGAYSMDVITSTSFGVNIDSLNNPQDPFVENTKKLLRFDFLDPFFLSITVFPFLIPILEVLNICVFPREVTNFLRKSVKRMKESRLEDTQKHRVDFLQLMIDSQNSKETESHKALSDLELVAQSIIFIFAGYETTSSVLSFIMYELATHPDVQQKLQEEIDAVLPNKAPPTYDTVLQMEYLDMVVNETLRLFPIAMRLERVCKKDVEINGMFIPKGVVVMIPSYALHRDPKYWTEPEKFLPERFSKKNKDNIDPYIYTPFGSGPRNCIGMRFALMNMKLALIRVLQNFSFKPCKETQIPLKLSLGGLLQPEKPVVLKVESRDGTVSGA

CYP2C19 = CYP2C19 (Homo sapiens, UniProt P33261); test: Inhibition of recombinant human CYP2C19 expressed in baculovirus infected insect cell microsomes at 1 uM relative to control; assay type: ADME
Sequence of CYP2C19 (P33261 whole entry): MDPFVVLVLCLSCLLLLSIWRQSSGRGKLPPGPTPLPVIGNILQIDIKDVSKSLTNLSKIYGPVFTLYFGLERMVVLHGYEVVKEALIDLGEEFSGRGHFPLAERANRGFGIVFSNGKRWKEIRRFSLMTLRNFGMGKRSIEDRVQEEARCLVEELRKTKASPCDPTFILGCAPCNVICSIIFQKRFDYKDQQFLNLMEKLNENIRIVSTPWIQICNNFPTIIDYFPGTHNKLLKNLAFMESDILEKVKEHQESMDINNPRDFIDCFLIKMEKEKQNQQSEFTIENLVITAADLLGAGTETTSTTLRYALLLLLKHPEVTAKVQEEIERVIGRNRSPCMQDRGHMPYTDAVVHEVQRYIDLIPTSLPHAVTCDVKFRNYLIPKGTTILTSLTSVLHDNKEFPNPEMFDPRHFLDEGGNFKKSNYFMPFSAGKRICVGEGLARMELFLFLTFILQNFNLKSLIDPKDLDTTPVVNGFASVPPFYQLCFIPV

Row | Compound | activity at 3 µM [1] | activity at 10 µM [2] | IC50 [3] | IC50 [4] | also measured
1 | COc1c(C)cc(-c2ccc(C(=O)c3c(F)ccc(O)c3F)s2)cc1C | 51% | 69% |  |  | 
2 | O=C(c1ccc(-c2cc(Cl)c(O)c(Cn3ccnn3)c2)s1)c1c(F)ccc(O)c1F |  |  | 0.026 µM | 0.018 µM | 
3 | COc1c(Cl)cc(-c2ccc(C(=O)c3cccc(O)c3)s2)cc1Cl | 8% | 0% | 0.25 µM | 0.006 µM | 
4 | COc1ccc(-c2ccc(C(=O)c3c(F)ccc(O)c3F)s2)cc1S(=O)(=O)N1CCOCC1 | 0% | 4% | 0.18 µM | 0.13 µM | 
5 | O=C(c1cccc(O)c1)c1ccc(-c2ccc(F)cc2F)s1 |  |  | 0.14 µM | 0.105 to 0.11 µM | 
6 | Cc1cc(-c2ccc(C(=O)c3c(F)ccc(O)c3F)s2)cc(C)c1O | 17% | 22% |  |  | 
7 | O=C(c1cccc(O)c1)c1ccc(-c2cc(Cl)c(O)c(Cl)c2)s1 |  |  | 0.54 µM | 0.073 µM | 
8 | NS(=O)(=O)c1ccc(-c2ccc(C(=O)c3c(F)ccc(O)c3F)s2)cc1 |  |  | 0.085 µM | 0.15 µM | 
9 | O=C(c1ccc(-c2ccc(F)cc2F)s1)c1cccc(O)c1F |  |  | 0.055 µM | 0.047 µM | 

Now from value to compound, other results behind:

Row | activity at 3 µM [1] | activity at 10 µM [2] | IC50 [3] | IC50 [4] | Compound | also measured
10 | 44% | 6% |  |  | N#Cc1cc(-c2ccc(C(=O)c3c(F)ccc(O)c3F)s2)ccc1O | 
11 |  |  | 0.035 µM | 0.011 µM | O=C(c1ccc(-c2ccccc2)s1)c1c(F)ccc(O)c1F | 
12 |  |  |  | 0.0003 µM | COc1c(C)cc(-c2ccc(C(=O)c3c(F)ccc(O)c3F)s2)cc1Cl | 
13 |  |  | 0.086 µM | 0.055 µM | NS(=O)(=O)c1cccc(-c2ccc(C(=O)c3c(F)ccc(O)c3F)s2)c1 | 
14 |  |  | 0.047 µM | 0.027 µM | O=C(c1ccc(-c2cccnc2)s1)c1c(F)ccc(O)c1F | 
15 | 73% | 55% |  |  | O=C(c1ccc(-c2ccc(O)c(Cl)c2)s1)c1c(F)ccc(O)c1F | 
16 |  |  | 0.038 µM | 0.018 µM | COc1ccc(-c2ccc(C(=O)c3c(F)ccc(O)c3F)s2)cc1 | 
17 |  |  | 0.071 µM | 0.003 µM | O=C(c1ccc(-c2ccc(O)cc2)s1)c1c(F)ccc(O)c1F | 
18 |  |  | 0.039 µM | 0.15 µM | O=C(c1ccc(-c2ccncc2)s1)c1c(F)ccc(O)c1F | 
19 | 37% | 11% |  |  | O=C(c1ccc(-c2cc(Cl)c(O)c(Cl)c2)s1)c1c(F)ccc(O)c1F | 
20 | 27% | 8% |  | 0.0005 µM | COc1c(Cl)cc(-c2ccc(C(=O)c3c(F)ccc(O)c3F)s2)cc1Cl | Activity (Salmonella typhimurium [5]): Non-Toxic; inhibition at 1 µM (CYP2D6): 0%; concentration (Plasma [6]): 0.024 µM; Activity (Salmonella typhimurium [7]): Non-Toxic; concentration (Plasma [8]): 0.072 µM; activity at 3.16 µM (PXR (NR1I2)): < 5%; inhibition at 1 µM (CYP2C9): 0%; concentration (Plasma [9]): 0.042 µM; Activity (HEK293): Non-Toxic; Activity (Salmonella typhimurium [10]): Non-Toxic; inhibition at 1 µM (CYP2B6): 4%; inhibition at 1 µM (CYP1A2): 11%; Activity (Salmonella typhimurium [11]): Non-Toxic; Selectivity Index [12]: 11160; inhibition at 1 µM (CYP3A4): 36%; inhibition at 1 µM (CYP2C19): 27%
